Assay results as given in publication PMC12538393 (RSC Advances, 2025).

Tests used:
ACE = ACE (Homo sapiens, UniProt P12821); experiment: In vitro ACE inhibitory activity, DOJINDO ACE Kit-WST reagent box; assay type: biochemical
hypertensive animals = conditions: snake venom peptide; cited from earlier work

ACE, sequence (P12821 30-1306, species assumed): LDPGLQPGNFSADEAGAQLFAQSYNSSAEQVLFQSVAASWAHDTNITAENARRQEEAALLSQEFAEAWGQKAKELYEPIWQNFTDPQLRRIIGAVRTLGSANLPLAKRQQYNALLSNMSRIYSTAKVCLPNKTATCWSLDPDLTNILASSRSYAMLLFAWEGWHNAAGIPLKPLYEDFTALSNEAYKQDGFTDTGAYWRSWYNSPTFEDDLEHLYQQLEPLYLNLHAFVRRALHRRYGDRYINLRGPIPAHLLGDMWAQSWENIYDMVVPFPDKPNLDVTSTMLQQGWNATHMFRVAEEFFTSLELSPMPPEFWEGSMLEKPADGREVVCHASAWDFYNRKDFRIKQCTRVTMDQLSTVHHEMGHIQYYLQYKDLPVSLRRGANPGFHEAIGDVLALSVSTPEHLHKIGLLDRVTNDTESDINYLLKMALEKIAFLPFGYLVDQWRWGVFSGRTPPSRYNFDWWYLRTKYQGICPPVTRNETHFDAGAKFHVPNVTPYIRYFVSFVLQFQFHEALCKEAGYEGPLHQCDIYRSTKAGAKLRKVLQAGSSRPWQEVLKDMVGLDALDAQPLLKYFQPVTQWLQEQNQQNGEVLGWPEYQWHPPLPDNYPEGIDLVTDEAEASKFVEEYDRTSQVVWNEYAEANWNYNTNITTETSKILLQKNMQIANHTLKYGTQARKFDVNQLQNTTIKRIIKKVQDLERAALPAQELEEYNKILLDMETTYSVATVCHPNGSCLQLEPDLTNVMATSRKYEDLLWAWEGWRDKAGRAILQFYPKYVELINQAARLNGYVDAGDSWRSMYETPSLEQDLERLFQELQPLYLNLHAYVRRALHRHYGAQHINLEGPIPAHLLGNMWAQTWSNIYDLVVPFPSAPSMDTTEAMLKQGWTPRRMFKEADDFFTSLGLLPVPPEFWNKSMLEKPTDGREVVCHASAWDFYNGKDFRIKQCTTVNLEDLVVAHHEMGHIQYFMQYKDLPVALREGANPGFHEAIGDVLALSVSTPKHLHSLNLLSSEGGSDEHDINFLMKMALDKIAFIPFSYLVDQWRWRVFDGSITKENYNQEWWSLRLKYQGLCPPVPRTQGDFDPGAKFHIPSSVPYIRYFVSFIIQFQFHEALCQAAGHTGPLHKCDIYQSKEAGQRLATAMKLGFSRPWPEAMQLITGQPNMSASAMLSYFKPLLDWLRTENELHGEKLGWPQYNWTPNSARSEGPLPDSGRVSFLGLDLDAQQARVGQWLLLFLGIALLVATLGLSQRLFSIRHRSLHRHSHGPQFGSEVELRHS

| Substance | ACE-inhibitory activity, comparison in words (ACE) | antihypertensive effect for hypertensive animals (hypertensive animals) |
| --- | --- | --- |
| H-Asp-Arg-Tyr-OH [D2] | potencies are still higher than that of compound 144 |  |
| H-Leu-Arg-Asn-OH [D1] | potencies are still higher than that of compound 144 |  |
| Pyr-Trp-Pro-Arg-Pro-Gln-Ile-Pro-Pro |  | best antihypertensive effect for hypertensive animals |
